pIC50: −log10 of the molar value.
Assays:
[1] = system: A2058 (ATCC, CRL-11147) cells; assay: Cell viability assay (Cell Titre Glo, 72 hours) in A2058 cells; type: cell-based; settings: Homo sapiens
Summary of the method: (§1)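 10-point dose response, top final concentration 30 μM, 1 in 3 dilutions; 5000 cells per well added directly to compound. Incubated 72 hours at 37° C, 5% CO2, then viability read by Cell Titre Glo luminescence and IC50 curves fitted.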

[2] = system: PA1 (ECACC, 90013101) cells; assay: Cell viability assay (Cell Titre Glo, 72 hours) in PA1 cells; type: cell-based; settings: Homo sapiens, PA-1
Summary of the method: as §1

How did the pIC50 [1] turn out when `CCn1nc(C(=O)N2CCN(c3ccc(C(F)(F)F)cc3C)CC2)c2ccccc2c1=O` [Compound 104] was run?
Its pIC50 is 5.00 to 6.00.

And the pIC50 [2]?
The pIC50 was 5.00 to 6.00.

`Cn1nc(C(=O)N2CCN(c3nnccc3C3CC3)CC2)c2ccccc2c1=O` [Compound 185, 4-[4-(4-cyclopropylpyridazin-3-yl)piperazine-1-carbonyl]-2-methyl-phthalazin-1-one] was tested. Which pIC50 [1] did it give?
Its pIC50 is 5.00 to 6.00.

What about the pIC50 [2] of the same compound?
Its pIC50 is 5.00 to 6.00.

With `Cn1nc(C(=O)N2CCN(c3cc(C#N)cc(OC(F)F)c3)CC2)c2ccccc2c1=O` [Compound 199] as the compound, how does the pIC50 [1] read?
Its pIC50 is ≥ 6.00.

What about the pIC50 [2] of the same compound?
Its pIC50 is ≥ 6.00.

With `COc1cccc(N2CCN(C(=O)c3nn(C)c(=O)c4cnccc34)CC2)c1` [Compound 172, 1-(4-(3-methoxyphenyl)piperazine-1-carbonyl)-3-methylpyrido[3,4-d]pyridazin-4(3H)-one] as the compound, how does the pIC50 [1] read?
Its pIC50 is 5.00 to 6.00.

And the pIC50 [2]?
Its pIC50 is 5.00 to 6.00.

`CCn1nc(C(=O)N2CCN(c3cccc(C#N)c3)CC2)c2cc(F)ccc2c1=O` [Compound 240] was tested. Which pIC50 [1] did it give?
Its pIC50 is ≥ 6.00.

What about the pIC50 [2] of the same compound?
The pIC50 was ≥ 6.00.

How did the pIC50 [1] turn out when `COc1cccnc1N1CCN(C(=O)c2nn(C)c(=O)c3ccc(F)cc23)CC1` [Compound 169] was run?
The pIC50 was 5.00 to 6.00.

What about the pIC50 [2] of the same compound?
The pIC50 was ≥ 6.00.

How did the pIC50 [1] turn out when `CCn1nc(C(=O)N2CCN(c3cnccc3OC)CC2)c2cnccc2c1=O` [Compound 243] was run?
The pIC50 was 5.00 to 6.00.

What about the pIC50 [2] of the same compound?
The pIC50 was ≥ 6.00.

How did the pIC50 [1] turn out when `Cn1nc(C(=O)N2CCN(c3ccc(F)cc3C3CC3)CC2)c2ccccc2c1=O` [Compound 60] was run?
Its pIC50 is ≥ 6.00.

What about the pIC50 [2] of the same compound?
Its pIC50 is ≥ 6.00.

`Cn1nc(C(=O)N2CCN(c3cnccc3C3CC3)CC2)c2cc(F)ccc2c1=O` [Compound 232, 4-(4-(4-cyclopropylpyridin-3-yl)piperazine-1-carbonyl)-6-fluoro-2-methylphthalazin-1(2H)-one] was tested. Which pIC50 [1] did it give?
Its pIC50 is ≥ 6.00.

And the pIC50 [2]?
Its pIC50 is ≥ 6.00.

With `CCn1nc(C(=O)N2CCN(c3cc(Cl)cc(C#N)c3)CC2)c2cnccc2c1=O` [Compound 244] as the compound, how does the pIC50 [1] read?
Its pIC50 is ≥ 6.00.

What about the pIC50 [2] of the same compound?
Its pIC50 is ≥ 6.00.

Which results are given for `COc1cc(N2CCN(C(=O)c3nn(C)c(=O)c4ccccc34)CC2)ccn1` [Compound 36]?
pIC50 [1]: < 4.70; pIC50 [2]: < 4.70

How did the pIC50 [1] turn out when `Cn1nc(C(=O)N2CCN(c3ccccc3)CC2)c2cnccc2c1=O` [Compound 170, 2-methyl-4-(4-phenylpiperazine-1-carbonyl)pyrido[3,4-d]pyridazin-1-one] was run?
Its pIC50 is < 4.70.

And the pIC50 [2]?
Its pIC50 is < 4.70.

How did the pIC50 [1] turn out when `Cn1nccc1N1CCN(C(=O)c2nn(C)c(=O)c3ccccc23)CC1` [Compound 227] was run?
Its pIC50 is < 4.70.

And the pIC50 [2]?
The pIC50 was < 4.70.

How did the pIC50 [1] turn out when `Cn1nc(C(=O)N2CCN(c3ncc(F)cc3C3CC3)CC2)c2ccccc2c1=O` [Compound 19] was run?
Its pIC50 is 5.00 to 6.00.

And the pIC50 [2]?
Its pIC50 is ≥ 6.00.

How did the pIC50 [1] turn out when `CCn1nc(C(=O)N2CCN(c3ncccc3C3CC3)CC2)c2ccccc2c1=O` [Compound 108] was run?
The pIC50 was ≥ 6.00.

And the pIC50 [2]?
Its pIC50 is ≥ 6.00.

Which results are given for `Cc1cc(C#N)cc(N2CCN(C(=O)c3nn(C)c(=O)c4ccccc34)CC2)c1` [Compound 68]?
pIC50 [1]: ≥ 6.00; pIC50 [2]: ≥ 6.00

With `Cn1nc(C(=O)N2CCN(c3cncc(C4CC4)c3)CC2)c2cc(F)ccc2c1=O` [Compound 159] as the compound, how does the pIC50 [1] read?
Its pIC50 is ≥ 6.00.

And the pIC50 [2]?
The pIC50 was ≥ 6.00.

How did the pIC50 [1] turn out when `CCn1nc(C(=O)N2CCN(c3cccc4c3OCC4)CC2)c2ccccc2c1=O` [Compound 126] was run?
Its pIC50 is ≥ 6.00.

What about the pIC50 [2] of the same compound?
The pIC50 was ≥ 6.00.

With `COc1ccccc1N1CCN(C(=O)c2nn(C)c(=O)c3ncccc23)CC1` [Compound 183] as the compound, how does the pIC50 [1] read?
Its pIC50 is < 4.70.

And the pIC50 [2]?
Its pIC50 is 4.70 to 5.00.

With `COc1cccc(N2CCN(C(=O)c3nn(C)c(=O)c4ccncc34)CC2)c1` [Compound 173, 4-(4-(3-methoxyphenyl)piperazine-1-carbonyl)-2-methylpyrido[3,4-d]pyridazin-1(2H)-one] as the compound, how does the pIC50 [1] read?
Its pIC50 is 5.00 to 6.00.

What about the pIC50 [2] of the same compound?
The pIC50 was ≥ 6.00.

Which results are given for `CCn1nc(C(=O)N2CCN(c3ccc(F)c4ccoc34)CC2)c2ccccc2c1=O` [Compound 92]?
pIC50 [1]: ≥ 6.00; pIC50 [2]: ≥ 6.00

With `COc1cc(N2CCN(C(=O)c3nn(C)c(=O)c4ccc(F)cc34)CC2)ccn1` [Compound 163] as the compound, how does the pIC50 [1] read?
The pIC50 was < 4.70.

And the pIC50 [2]?
The pIC50 was < 4.70.

With `CCOc1cc(F)ccc1N1CCN(C(=O)c2nn(C)c(=O)c3ccccc23)CC1` [Compound 58] as the compound, how does the pIC50 [1] read?
The pIC50 was 5.00 to 6.00.

What about the pIC50 [2] of the same compound?
Its pIC50 is ≥ 6.00.

With `O=C(c1nn(C2CC2)c(=O)c2ccccc12)N1CCN(c2ccccc2)CC1` [Compound 9, 2-cyclopropyl-4-(4-phenylpiperazine-1-carbonyl)phthalazin-1-one] as the compound, how does the pIC50 [1] read?
Its pIC50 is 5.00 to 6.00.

What about the pIC50 [2] of the same compound?
Its pIC50 is ≥ 6.00.

With `Cc1ccc(N2CCN(C(=O)c3nn(C)c(=O)c4ccccc34)CC2)cc1` [Compound 10, 2-methyl-4-[4-(p-tolyl)piperazine-1-carbonyl]phthalazin-1-one] as the compound, how does the pIC50 [1] read?
The pIC50 was < 4.70.

What about the pIC50 [2] of the same compound?
The pIC50 was < 4.70.

What does the source list for `CCn1nc(C(=O)N2CCN(c3ccccc3OC3CC3)CC2)c2ccccc2c1=O` [Compound 132]?
pIC50 [1]: 5.00 to 6.00; pIC50 [2]: ≥ 6.00

How did the pIC50 [1] turn out when `CCn1nc(C(=O)N2CCN(c3ncccc3C(F)(F)F)CC2)c2ccccc2c1=O` [Compound 136] was run?
The pIC50 was 4.70 to 5.00.

What about the pIC50 [2] of the same compound?
Its pIC50 is 5.00 to 6.00.

Which results are given for `CCn1nc(C(=O)N2CCN(c3cccc4c3CCO4)CC2)c2ccccc2c1=O` [Compound 155]?
pIC50 [1]: ≥ 6.00; pIC50 [2]: ≥ 6.00

With `Cn1nc(C(=O)N2CCN(c3cc(F)cc(C#N)c3)CC2)c2cc(F)ccc2c1=O` [Compound 212] as the compound, how does the pIC50 [1] read?
Its pIC50 is ≥ 6.00.

And the pIC50 [2]?
The pIC50 was ≥ 6.00.

With `COc1ncc(F)cc1N1CCN(C(=O)c2nn(C)c(=O)c3ccccc23)CC1` [Compound 75] as the compound, how does the pIC50 [1] read?
Its pIC50 is ≥ 6.00.

What about the pIC50 [2] of the same compound?
The pIC50 was ≥ 6.00.

`Cc1nc2c(N3CCN(C(=O)c4nn(C)c(=O)c5ccccc45)CC3)cccc2o1` [Compound 53] was tested. Which pIC50 [1] did it give?
Its pIC50 is 5.00 to 6.00.

And the pIC50 [2]?
Its pIC50 is 5.00 to 6.00.

Which results are given for `CCn1nc(C(=O)N2CCN(c3c(C)cnc4ccccc34)CC2)c2ccccc2c1=O` [Compound 123]?
pIC50 [1]: < 4.70; pIC50 [2]: < 4.70

`Cn1nc(C(=O)N2CCN(c3ccc(C#N)cc3)CC2)c2ccccc2c1=O` [Compound 46] was tested. Which pIC50 [1] did it give?
The pIC50 was 5.00 to 6.00.

And the pIC50 [2]?
The pIC50 was 5.00 to 6.00.

Which results are given for `CCc1ccncc1N1CCN(C(=O)c2nn(C)c(=O)c3ccccc23)CC1` [Compound 66]?
pIC50 [1]: 5.00 to 6.00; pIC50 [2]: ≥ 6.00

`CC(C)c1cncc(N2CCN(C(=O)c3nn(C)c(=O)c4ccc(F)cc34)CC2)c1` [Compound 209] was tested. Which pIC50 [1] did it give?
The pIC50 was 4.70 to 5.00.

And the pIC50 [2]?
Its pIC50 is 4.70 to 5.00.

How did the pIC50 [1] turn out when `COc1cccc(N2CCN(C(=O)c3nn(C)c(=O)c4ncccc34)CC2)c1` [Compound 182, 5-(4-(3-methoxyphenyl)piperazine-1-carbonyl)-7-methylpyrido[2,3-d]pyridazin-8(7H)-one] was run?
Its pIC50 is < 4.70.

What about the pIC50 [2] of the same compound?
The pIC50 was < 4.70.

Which results are given for `CCn1nc(C(=O)N2CCN(c3cccc(C(F)(F)F)c3OC)CC2)c2ccccc2c1=O` [Compound 137]?
pIC50 [1]: < 4.70; pIC50 [2]: 4.70 to 5.00

With `CCOc1ccccc1N1CCN(C(=O)c2nn(CC)c(=O)c3ccccc23)CC1` [Compound 134] as the compound, how does the pIC50 [1] read?
The pIC50 was ≥ 6.00.

What about the pIC50 [2] of the same compound?
The pIC50 was ≥ 6.00.

Which results are given for `COc1cc(Cl)ccc1N1CCN(C(=O)c2nn(C)c(=O)c3ccccc23)CC1` [Compound 57]?
pIC50 [1]: 5.00 to 6.00; pIC50 [2]: ≥ 6.00

`COc1cc(F)cc(N2CCN(C(=O)c3nn(C)c(=O)c4ncccc34)CC2)c1` [Compound 184, 5-(4-(3-fluoro-5-methoxyphenyl)piperazine-1-carbonyl)-7-methylpyrido[2,3-d]pyridazin-8(7H)-one] was tested. Which pIC50 [1] did it give?
Its pIC50 is 4.70 to 5.00.

And the pIC50 [2]?
Its pIC50 is 5.00 to 6.00.

`COc1cc(N2CCN(C(=O)c3nn(C)c(=O)c4ccccc34)CC2)cnn1` [Compound 12] was tested. Which pIC50 [1] did it give?
The pIC50 was 4.70 to 5.00.

What about the pIC50 [2] of the same compound?
The pIC50 was 4.70 to 5.00.

`CC(C)Oc1cc(F)ccc1N1CCN(C(=O)c2nn(C)c(=O)c3ccccc23)CC1` [Compound 59] was tested. Which pIC50 [1] did it give?
Its pIC50 is 5.00 to 6.00.

And the pIC50 [2]?
Its pIC50 is 5.00 to 6.00.

Reference: US12465603B2, “Phthalazinone based modulators for the treatment of disease” (Soley Therapeutics, Inc., priority 2022, dated 2025)
